The values that follow come from US20230302160A1, “TUMOR CONTRAST COMPOUND, PREPARATION METHOD THEREFOR AND APPLICATION THEREOF IN TUMOR DIAGNOSTIC IMAGING” (Ningbo Haibo Biotechnology Co., Ltd, priority 2020, published 2023).

Where two headings read alike, the source gives them in different places.

The test system of data set [1] is human renal cancer cell line A498. Briefly: Fluorescence localization imaging in human renal cancer cell line A498. The class given is cell-based. Conditions: same method as Example 2; for intracellular localization: A498 cells. The procedure: 786o cells (3×10^5/well) were seeded in a 6-well plate in advance and placed in a cell culture incubator for 48 h. After the culture medium was blotted, a culture medium comprising the corresponding compound (5 μM) and Mito-tracker (0.2 nM) was added to the experimental well, incubated for 30 min, cleaned three times with PBS solution, and imaged using a fluorescence microscope equipped with an infrared camera and a continuous LED light source. The near-infrared photos were taken under Ex=745 nm, Em=820 nm; the Mito-tracker photos were taken under Ex=488 nm and Em=520 nm.
The same method as Example 2 was employed except that the human renal cancer cell line A498 was used to detect the localization of Compounds 4, 5 within the cell.

Data set [2] is described as follows: Fluorescence quenching effect after mixing with surfactin in different ratios (fluorescence imager, ROI). Conditions: compound 20 μM with surfactin. It counts as physicochemical. The procedure: The test solution was shaken for 5 min and added to a black 96-well plate with 50 ul of test solution per experimental well. Then a fluorescence imager was used for imaging. The photos were taken under Ex=745 nm, Em=820 nm. The ROI (Region of Interest) value for each well was quantitatively calculated.

A short description of data set [3]: Fluorescence emission spectroscopy test after mixing with surfactin in different ratios. The class given is physicochemical. Conditions: for fluorescence quenching in aqueous solution under the action of surfactin compared with methanol solution (emission spectra): compound 20 μM, Ex=730 nm, Em=760-960 nm, ratio 1:5 stated for Compounds 1-3; for fluorescence quenching effect when the amount of surfactin was reduced: compound:surfactin from 1:5 to 1:1, 1:0.2.
Description: Surfactin in different concentrations was added to the aqueous solution of the corresponding compound (final concentration of 20 μM), and the molar ratio of the compound to be tested to surfactin was 1:5, 1:1, 1:0.2. A methanol solution of the corresponding compound (final concentration of 20 μM) was used as a positive control. The test solution was shaken for 5 minutes and its fluorescence emission spectra (Ex=730 nm, Em=760-960 nm) were detected using a fluorescence spectrophotometer.

Data set [4] has as its system tumor tissue in a mouse subcutaneous xenograft renal clear cell carcinoma tumor model (786o). Briefly: Near-infrared imaging of excised tumor tissue immersed in compound/surfactin solution, renal clear cell carcinoma model. Conditions: compound 20 μM, surfactin 100 μM (1:5), 786o xenograft tumor tissue immersed; for correlation between uptake by tumor tissues and immersion time: ROI. As to the method: (§1) Mice were dissected, and tumor tissues were taken.
Compounds 1-8 were added to the aqueous solution of surfactin. The final concentration of surfactin was 100 μM, and the final concentration of each compound was 20 μM (the molar ratio of the compound to surfactant was 1:5).
(§2) The tumor tissue was immersed in the above liquid.

Data set [5] concerns diseased colonic tissue in a mouse primary bowel cancer tumor model (APCmin/+). Briefly: Near-infrared imaging of diseased colon tissue immersed in compound/surfactin mixture, primary bowel cancer model. Conditions: for recognition of tumor lesions: mixture with surfactin 1:5 (20 μM/100 μM), colon tissue immersed 12 min; for imaging ranking: mixture with surfactin 1:5, colon tissue immersed 12 min. The procedure:
Establishment of the mouse primary bowel cancer tumor model of APCmin/+ mouse model: parent C57BL/6J-APC min/+ mice and C57BL/6J wt mice were caged and propagated. The genotype of the offspring was detected and the offspring C57BL/6J-APC min/+ mice (diseased mice) were screened. The offspring C57BL/6J-APC min/+ mice were killed at week 20. Mice were dissected and diseased colon tissue was taken. Colon was cut longitudinally for subsequent tests.
Compounds 1-8 were added to the aqueous solution of surfactin.
The diseased colon tissue of mice was immersed in the above fluid. A fluorescence imager was used for imaging after 12 min.

Data set [6] deals with tumor tissue in a mouse subcutaneous xenograft breast cancer tumor model. The data set can be described thus: Near-infrared imaging of tumor tissue, breast cancer model. The note with it: compound:surfactin 1:5, breast cancer xenograft tumor tissue; for correlation between uptake by tumor tissues and immersion time: ROI.
Description: as §1, §2

The conditions of data set [7]: molar ratio 1:1. As to the method:
Different surfactants were added to the aqueous solution of Compound 4 (final concentration of […]), and the molar ratio of the compound to be tested to surfactin was 1:1. In addition, a methanol solution of the compound (final concentration of 20 μM) was used as a positive control. The test solution was shaken for 5 minutes and its fluorescence emission spectra (Ex=730 nm, Em=760-960 nm) were detected using a fluorescence spectrophotometer.

Data set [8] has as its system organic anion transporting polypeptides (OATPs). Conditions: compound:surfactin 1:5, 1 mM sodium bromosulfophthalein (50 equivalent), renal clear cell carcinoma xenograft tumor tissue.
Description: Female nude mice around 5 weeks of age were ordered and subjected to subcutaneous renal clear cell cancer cell 786o inoculation after one week of barrier environmental adaptation at a specific position above the right lower limb (3×10^6/pce, suspended in 200 μl PBS solution). When the tumor volume reached 50-150 mm^3 (about 12-22 days), nude mice were randomly grouped with 3 mice in each experimental group. Mice were dissected, and tumor tissues were taken.
The tumor tissue was immersed in the above liquid. A fluorescence imager was used for imaging after a specified time.

With `CC[N+]1=C(/C=C/C2=C(Cl)C(=C/C=C3/N(CCCCCC(=O)Oc4ccc(NC(=O)OC(C)(C)C)cc4)c4ccccc4C3(C)C)/CCC2)C(C)(C)c2ccccc21` [Compound 5], in data set [1], the intracellular localization result is “enriched in mitochondria” and the “uptake by tumor cells” value was “uptaken by tumor cells”. In data set [2], the “fluorescence quenching effect, comparison between compounds” value was “better than that of Compounds 1, 2 and 3”. Further, in data set [3], the “fluorescence quenching in aqueous solution under the action of surfactin compared with methanol solution (emission spectra)” value is reported as “obvious fluorescence quenching” and the “fluorescence quenching effect when the amount of surfactin was reduced” value was “not significantly reduced”. In addition, in data set [4], the “reason for near-infrared imaging of tumor tissues” value (from here on “reason for near-infrared imaging”) was “targeted recognition of tumor tissue by the compounds”; the “uptake of the compound by tumor tissue (level)” value (“uptake of the compound” for short) is on record as “low uptake”; the “correlation between uptake by tumor tissues and immersion time” value (“correlation between uptake” for short) was “a certain positive correlation”. Further, the “recognition of tumor lesions” value in data set [5] was “high specific recognition”.

On to `CC[N+]1=C(/C=C/C2=C(Cl)C(=C/C=C3/N(CCCCCC(=O)Nc4ccc(NC(=O)OC(C)(C)C)cc4)c4ccccc4C3(C)C)/CCC2)C(C)(C)c2ccccc21` [Compound 6], for which, in data set [3], the “fluorescence quenching in aqueous solution under the action of surfactin compared with methanol solution (emission spectra)” value was “obvious fluorescence quenching” and the “fluorescence quenching effect when the amount of surfactin was reduced” value was “not significantly reduced”. In data set [4], the “overall imaging of tumor tissue” value was “optimal imaging of tumor tissue”; the “reason for near-infrared imaging” value is reported as “targeted recognition of tumor tissues by the compounds”; the “uptake of the compound” value is recorded as “high uptake”; the “correlation between uptake” value is reported as “an obvious positive correlation”. Besides, in data set [6], the “uptake of the compound” value was “higher”; the “correlation between uptake” value is listed as “an obvious positive correlation”. In data set [5], the “recognition of tumor lesions” value is given as “high specific recognition” and the imaging ranking entry is listed as “best imaged”.

As for `CC1(C)C(/C=C/C2=C(Cl)C(=C/C=C3/N(CCCCCC(=O)O)c4ccccc4C3(C)C)/CCC2)=[N+](CCCCCC(=O)O)c2ccccc21` [Compound 1, reference compound], in data set [2], the “fluorescence quenching effect, comparison between compounds” value was “the worst”. In data set [3], the “fluorescence quenching in aqueous solution under the action of surfactin compared with methanol solution (emission spectra)” value is “obvious fluorescence quenching” and the “fluorescence quenching effect when the amount of surfactin was reduced” value is given as “significantly reduced”. For the same molecule, in data set [4], the “reason for near-infrared imaging” value was “non-specific adsorption of the compounds by tissues”; the “correlation between uptake” value is on record as “no obvious positive correlation”. Besides, in data set [5], the “recognition of tumor lesions” value is recorded as “had a recognition effect”.

As for `CC[N+]1=C(/C=C/C2=C(Cl)C(=C/C=C3/N(CCCCCC(=O)Oc4ccccc4)c4ccccc4C3(C)C)/CCC2)C(C)(C)c2ccccc21` [Compound 4], in data set [1], the intracellular localization result was “enriched in mitochondria” and the “uptake by tumor cells” value is recorded as “uptaken by tumor cells”. In data set [2], the “fluorescence quenching effect, comparison between compounds” value is “better than that of Compounds 1, 2 and 3”. In addition, in data set [3], the “fluorescence quenching in aqueous solution under the action of surfactin compared with methanol solution (emission spectra)” value was “obvious fluorescence quenching” and the “fluorescence quenching effect when the amount of surfactin was reduced” value is on record as “not significantly reduced”. In addition, in data set [7] (mixed with anionic surfactants (surfactin, sodium dodecyl sulfonate, sodium dodecyl benzene sulfonate)), the “fluorescence signal in aqueous solution after mixing” value (from here on “fluorescence signal”) is listed as “substantially no fluorescence signal”. Also, in data set [7] (mixed with cationic surfactants (dodecyltrimethylammonium chloride, tetrabutylammonium iodide)), the “fluorescence signal” value is reported as “still fluorescence signal”. Besides, in data set [7] (mixed with human serum albumin), the “fluorescence signal” value was “still fluorescence signal”. Besides, the “fluorescence signal” value in data set [7] (mixed with nonionic surfactants (Kolliphor, P123)) was “still fluorescence signal”. In data set [4], the “overall imaging of tumor tissue” value is reported as “optimal imaging of tumor tissue”; the “reason for near-infrared imaging” value was “targeted recognition of tumor tissues by the compounds”; the “uptake of the compound” value is “high uptake”; the “correlation between uptake” value is reported as “an obvious positive correlation”. Besides, in data set [6], the “uptake of the compound” value is “higher”; the “correlation between uptake” value is “an obvious positive correlation”. In addition, in data set [5], the “recognition of tumor lesions” value was “high specific recognition” and the imaging ranking result is “best imaged”. In data set [8], the “effect of excessive sodium bromosulfophthalein on uptake by tumor tissues” value is recorded as “effectively reduce the uptake”.

Take `CCN1/C(=C/C=C2\CCCC(/C=C/C3=[N+](CC)c4ccccc4C3(C)C)=C2Cl)C(C)(C)c2ccccc21` [Compound 2, reference compound]: in data set [3], the “fluorescence quenching in aqueous solution under the action of surfactin compared with methanol solution (emission spectra)” value is recorded as “obvious fluorescence quenching” and the “fluorescence quenching effect when the amount of surfactin was reduced” value is on record as “significantly reduced”. Moreover, in data set [4], the “reason for near-infrared imaging” value was “non-specific adsorption of the compounds by tissues”; the “correlation between uptake” value is reported as “no obvious positive correlation”. In addition, the “recognition of tumor lesions” value in data set [5] was “had a recognition effect”.

Regarding `CC[N+]1=C(/C=C/C2=C(Cl)C(=C/C=C3/N(CCCCCC(=O)O)c4ccccc4C3(C)C)/CCC2)C(C)(C)c2ccccc21` [Compound 3, reference compound], in data set [3], the “fluorescence quenching in aqueous solution under the action of surfactin compared with methanol solution (emission spectra)” value is “obvious fluorescence quenching” and the “fluorescence quenching effect when the amount of surfactin was reduced” value is reported as “significantly reduced”. Besides, in data set [4], the “reason for near-infrared imaging” value is given as “non-specific adsorption of the compounds by tissues”; the “correlation between uptake” value is on record as “no obvious positive correlation”. In addition, the “recognition of tumor lesions” value in data set [5] is “had a recognition effect”.
